# Experimental data from US20230143604A1, “QW DOSING OF GIP RECEPTOR AGONIST PEPTIDE COMPOUNDS AND USES THEREOF” (TAKEDA PHARMACEUTICAL COMPANY LIMITED, priority 2020, published 2023).
# Experiment: Solubility in phosphate buffer pH 7.4
# Settings: pH 7.4, aqueous buffer
# Outline: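 3 mg of peptide treated with 100 μL portions of 200 mM phosphate buffer pH 7.4, sonicating/vortexing up to 1 min, with further buffer added until fully dissolved. Solubility then quantified by HPLC.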
# [1] = pH 7.4 Phosphate Buffer - Solubility, 200 mM Phosphate buffer pH 7.4
SMILES,solubility (phosphate buffer) [mg/mL],solubility [1] [mg/mL]
CC[C@H](C)[C@H](NC(=O)[C@H](CO)NC(=O)[C@H](Cc1ccc(O)cc1)NC(=O)[C@H](CC(C)C)NC(=O)[C@H](CO)NC(=O)[C@@H](NC(=O)[C@H](Cc1ccccc1)NC(=O)[C@@H](NC(=O)CNC(=O)[C@H](CCC(=O)O)NC(=O)C(C)(C)NC(=O)[C@H](Cc1ccc(O)cc1)NC)[C@@H](C)O)[C@@H](C)CC)C(=O)N[C@@H](C)C(=O)N[C@@H](CC(C)C)C(=O)N[C@@H](CC(=O)O)C(=O)N[C@@H](CCCNC(=N)N)C(=O)N[C@@H](CCCCNC(=O)CNC(=O)CNC(=O)CNC(=O)CNC(=O)CNC(=O)CNC(=O)CCCCCCCCCCCCCCCCC(=O)O)C(=O)N[C@@H](Cc1c[nH]cn1)C(=O)N[C@@H](CCC(N)=O)C(=O)NC(C)(C)C(=O)N[C@@H](CC(N)=O)C(=O)N[C@@H](Cc1ccccc1)C(=O)N[C@H](C(=O)N[C@@H](CC(N)=O)C(=O)N[C@@H](Cc1c[nH]c2ccccc12)C(=O)N[C@@H](CC(C)C)C(=O)N[C@@H](CC(C)C)C(=O)N[C@@H](C)C(=O)N[C@@H](CCC(N)=O)C(=O)N[C@@H](CCCNC(=N)N)C(=O)N1CCC[C@H]1C(=O)N[C@@H](CO)C(=O)N[C@@H](CO)C(=O)NCC(=O)N[C@@H](C)C(=O)N1CCC[C@H]1C(=O)N1CCC[C@H]1C(=O)N1CCC[C@H]1C(=O)N[C@@H](CO)C(=O)N[C@@H](CCCNC(=N)N)C(N)=O)C(C)C [Compound 277],< 15,
CC[C@H](C)[C@H](NC(=O)[C@H](CO)NC(=O)[C@H](Cc1ccc(O)cc1)NC(=O)[C@H](CC(=O)O)NC(=O)[C@H](CO)NC(=O)[C@@H](NC(=O)[C@H](Cc1ccccc1)NC(=O)[C@@H](NC(=O)CNC(=O)[C@H](CCC(N)=O)NC(=O)C(C)(C)NC(=O)[C@H](Cc1ccc(O)cc1)NC)[C@@H](C)O)[C@@H](C)CC)C(=O)N[C@@H](C)C(=O)N[C@@H](CC(C)C)C(=O)N[C@@H](CC(=O)O)C(=O)N[C@@H](CCCNC(=N)N)C(=O)N[C@@H](CCCCNC(=O)CNC(=O)CNC(=O)CNC(=O)CNC(=O)CNC(=O)CNC(=O)CCCCCCCCCCCCCCCCC(=O)O)C(=O)N[C@@H](Cc1c[nH]cn1)C(=O)N[C@@H](CCC(N)=O)C(=O)NC(C)(C)C(=O)N[C@@H](CC(N)=O)C(=O)N[C@@H](Cc1ccccc1)C(=O)N[C@H](C(=O)N[C@@H](CC(N)=O)C(=O)N[C@@H](Cc1c[nH]c2ccccc12)C(=O)N[C@@H](CC(C)C)C(=O)N[C@@H](CC(C)C)C(=O)N[C@@H](C)C(=O)N[C@@H](CCC(N)=O)C(=O)N[C@@H](CCCNC(=N)N)C(=O)N1CCC[C@H]1C(=O)N[C@@H](CO)C(=O)N[C@@H](CO)C(=O)NCC(=O)N[C@@H](C)C(=O)N1CCC[C@H]1C(=O)N1CCC[C@H]1C(=O)N1CCC[C@H]1C(=O)N[C@@H](CO)C(=O)N[C@@H](CCCNC(=N)N)C(N)=O)C(C)C [Compound 278],,< 15
CC[C@H](C)[C@H](NC(=O)[C@H](CO)NC(=O)[C@H](Cc1ccc(O)cc1)NC(=O)[C@H](CC(=O)O)NC(=O)[C@H](CO)NC(=O)[C@@H](NC(=O)[C@H](Cc1ccccc1)NC(=O)[C@@H](NC(=O)CNC(=O)[C@H](CCC(=O)O)NC(=O)C(C)(C)NC(=O)[C@H](Cc1ccc(O)cc1)NC)[C@@H](C)O)[C@@H](C)CC)C(=O)N[C@@H](C)C(=O)N[C@@H](CC(C)C)C(=O)N[C@@H](CO)C(=O)N[C@@H](CCCNC(=N)N)C(=O)N[C@@H](CCCCNC(=O)CNC(=O)CNC(=O)CNC(=O)CNC(=O)CNC(=O)CNC(=O)CCCCCCCCCCCCCCCCC(=O)O)C(=O)N[C@@H](Cc1c[nH]cn1)C(=O)N[C@@H](CCC(N)=O)C(=O)NC(C)(C)C(=O)N[C@@H](CC(N)=O)C(=O)N[C@@H](Cc1ccccc1)C(=O)N[C@H](C(=O)N[C@@H](CC(N)=O)C(=O)N[C@@H](Cc1c[nH]c2ccccc12)C(=O)N[C@@H](CC(C)C)C(=O)N[C@@H](CC(C)C)C(=O)N[C@@H](C)C(=O)N[C@@H](CCC(N)=O)C(=O)N[C@@H](CCCNC(=N)N)C(=O)N1CCC[C@H]1C(=O)N[C@@H](CO)C(=O)N[C@@H](CO)C(=O)NCC(=O)N[C@@H](C)C(=O)N1CCC[C@H]1C(=O)N1CCC[C@H]1C(=O)N1CCC[C@H]1C(=O)N[C@@H](CO)C(=O)N[C@@H](CCCNC(=N)N)C(N)=O)C(C)C [Compound 279],,< 15
